Test results published in patent US9271952B2, “Compositions and methods for treating nephropathy” (Complexa, Inc., priority 2011, dated 2016).

Assays:
[1] = test system: human proximal tubular cells (HK2); test: Cisplatin-induced caspase activity in cultured human proximal tubular cells (HK2); assay type: cell-based
[2] = test system: B6129S2/J mice; test: Cisplatin-induced renal injury in mice, posttreatment with OA-NO2; assay type: in vivo
Excerpt: The control group also received an i.p. injection of the equivalent amount of ethanol at the same frequencies. At the end of the experiments, under isoflurane anesthesia, blood was withdrawn from the vena cava using 1 cc insulin syringe and kidneys were harvested for analysis of morphology and gene expression.

[3] = cisplatin 20 mg/kg i.p. alone, mice
[4] = cisplatin-treated mice, OA-NO2 400 mg/kg i.p. at 6-hour intervals for 48 hours

| Compound | increase in caspase activity ([1]; HK2 cells, exposure to 1.0 μM cisplatin) | activity of caspase [2, 3] | kidney TBARS [2, 3] | kidney expression of NADPH oxidase subunits p47phox and gp91phox [2, 3] | cisplatin-induced caspase activity ([1]; HK2 cells exposed to 1.0 μM cisplatin, with OA-NO2) | MPO plasma level (marker of neutrophil infiltration) [2, 4] | activity of caspase (index of apoptosis) [2, 4] | kidney expression of NADPH oxidase subunits p47phox and gp91phox [2, 4] | kidney thiobarbituric acid-reactive substances (TBARS, index of oxidative stress) [2, 4] | renal histological abnormalities (distortion of renal morphology, dilation of renal tubules, protein cast; pathological changes) ([2]; mice given cisplatin 20 mg/kg i.p., OA-NO2 400 mg/kg i.p. at 6-hour intervals for 48 hours) | renal dysfunction as indicated by a rise in plasma BUN (functional changes) ([2]; mice given cisplatin 20 mg/kg i.p., OA-NO2 400 mg/kg i.p. from 20 minutes after, at 6-hour intervals for 48 hours) |
| --- | --- | --- | --- | --- | --- | --- | --- | --- | --- | --- | --- |
| N.N.[Cl][Pt][Cl] [cisplatin, reference compound] | 3 fold | increased | increased | increased |  |  |  |  |  |  |  |
| 9- or 10-nitro octadecenoic acid [OA-NO2] |  |  |  |  | almost completely normalized | attenuated or completely corrected | attenuated or completely corrected | attenuated or completely corrected | attenuated or completely corrected | markedly attenuated | markedly attenuated |
